# From paper PMC10590056, “Design and synthesis of cabotegravir derivatives bearing 1,2,3-triazole and evaluation of anti-liver cancer activity” (Frontiers in Pharmacology, 2023)
# Where “and” joins values, the source holds several entries; their conditions need not be identical. Equal entries are not always repeated. Where two headings read alike, the source gives them in different places.
# What was measured:
# HepG2 cells [1] = details: cited from earlier work
# [2] = system: wild-type lung cancer cells (A549); design: method as in Mao L. F. et al., 2020; details: A549, stronger effect than icotinib; ref Mao L. F. et al., 2020; cited from earlier work
# [3] = system: mutant lung cancer cells (PC-9); design: method as in Mao L. F. et al., 2020; details: PC-9, stronger effect than icotinib; ref Mao L. F. et al., 2020; cited from earlier work
# HeLa cells = assay: MTT assay for cell proliferation, HeLa; assay type: cell-based; design: key to Inhibitory rate: inhibition rate = 1 - mean A490 sample/mean A490 control (fraction); details: Hela; for Inhibitory rate / ODtreated/ODcontrol: fraction, per experiment; for Inhibition rate (16μM), 48 h, Hela: preliminary screening, mean±SD, unit not given
# Method: (§1) HepG2, HeLa, MCF-7, and KYSE-30 cells were grown in a humidified incubator at 37°C with 5% CO2 in DMEM supplemented with 10% fetal bovine serum (FBS), […] streptomycin, and 100 U/mL penicillin.
# (§2) When HepG2 cells reached 80% confluence, they were treated with 1 mL of trypsin and resuspended at a density of 10^5 cells/mL. Then, 100 μL of cell suspension was seeded into each well of a 96-well plate and incubated in a humidified atmosphere. The different concentrations of KJ-5 and KJ-12 (0, 1, 2, 4, 8, 16, and 32 μM) were added to each well, and the cells were further incubated for 48 h. Afterward, 20 μL of the MTT solution (5 mg/mL) was added to each well, and incubation was continued for another 4 h. The supernatant was discarded, and 200 μL of the DMSO solution was added to each well. The plate was shaken for 10 min in the dark. The absorbance values were measured at 490 nm using an enzyme-linked detector. The cell inhibition rate (%) was calculated using the following formula: (1-Mean A490 sample/Mean A490 control) × 100%.
# HepG2 cells [4] = assay: MTT assay for cell proliferation and cytotoxicity, HepG2; assay type: cell-based; design: key to Inhibitory rate: inhibition rate = 1 - mean A490 sample/mean A490 control (fraction); details: for IC50: HepG2, 48 h, MTT; for Inhibitory rate / ODtreated/ODcontrol: HepG2, fraction, per experiment; for Inhibition rate (16μM), 48 h, HepG2: preliminary screening, HepG2, 16 μM, mean±SD, unit not given
# Method: as §1, §2
# MCF-7 cells = assay: MTT assay for cell proliferation, MCF-7; assay type: cell-based; design: key to Inhibitory rate / Inhibition rate: inhibition rate = 1 - mean A490 sample/mean A490 control (fraction); details: for Inhibition rate (16μM), 48 h, MCF-7: preliminary screening, MCF-7, 16 μM, mean±SD, unit not given
# Method: as §1, §2
# KYSE-30 cells = assay: MTT assay for cell proliferation, KYSE-30; assay type: cell-based; design: key to Inhibitory rate: inhibition rate = 1 - mean A490 sample/mean A490 control (fraction); details: for Inhibitory rate: KYSE-30, given as fraction; for Inhibition rate (16μM), 48 h, KYSE-30: preliminary screening, KYSE-30, 16 μM, mean±SD, unit not given
# Method: as §1, §2
# [5] = MCF-7, fraction, per experiment
# [6] = given as fraction, second of three experiments
# [7] = given as fraction, third of three experiments
# [8] = KYSE-30, first of three experiments
# [9] = KYSE-30, second of three experiments
# [10] = KYSE-30, third of three experiments
SMILES,Inhibitory rate (HeLa cells),ODtreated/ODcontrol (HeLa cells),"Inhibition rate (16μM), 48 h, Hela (HeLa cells)",IC50 (HepG2 cells [4]) [µM],Inhibitory rate (HepG2 cells [4]),ODtreated/ODcontrol (HepG2 cells [4]),"Inhibition rate (16μM), 48 h, HepG2 (HepG2 cells [4])",Inhibitory rate (MCF-7 cells; [5]),ODtreated/ODcontrol (MCF-7 cells; [5]),Inhibitory rate (MCF-7 cells; [6]),Inhibition rate (MCF-7 cells; [7]),"Inhibition rate (16μM), 48 h, MCF-7 (MCF-7 cells)",ODtreated/ODcontrol (MCF-7 cells; second of three experiments),ODtreated/ODcontrol (MCF-7 cells; third of three experiments),ODtreated/ODcontrol (KYSE-30 cells; [8]),Inhibitory rate (KYSE-30 cells; first of three experiments),Inhibitory rate (KYSE-30 cells; second of three experiments),Inhibitory rate (KYSE-30 cells; third of three experiments),ODtreated/ODcontrol (KYSE-30 cells; [9]),ODtreated/ODcontrol (KYSE-30 cells; [10]),other results
Cc1c(C(=O)Nc2ccc(Oc3cccc4[nH]ccc34)c(F)c2)nnn1-c1ccc(F)cc1 [compound 3],–,–,–,–,–,–,–,–,–,–,–,–,–,–,–,–,–,–,–,–,"IC50 (HepG2 cells [1]; ref Wang L. et al., 2018, Chen et al., 2022b, read-out: IC50 for HepG2 cells): 2.03 µM"
O=C(NCc1cn(-c2ccc(I)cc2)nn1)Nc1ccc(Cl)c(C(F)(F)F)c1 [compound 4],–,–,–,–,–,–,–,–,–,–,–,–,–,–,–,–,–,–,–,–,"IC50 (HepG2 cells [1]; ref Chen et al., 2022a, Oekchuae et al., 2022, read-out: IC50 for HepG2 cells): 5.57 µM"
C[C@]12CC[C@@H]3c4ccc(O)cc4CC[C@H]3[C@@H]1CC[C@@]2(O)c1cn(CC(=O)c2ccc(Cl)cc2)nn1 [compound 2],–,–,–,–,–,–,–,–,–,–,–,–,–,–,–,–,–,–,–,–,"IC50 (HepG2 cells [1]; ref Queiroz et al., 2019, read-out: IC50 for HepG2 cells): 17.8 µM"
Clc1cccc(-n2cc(-c3cccc(Nc4ncnc5cc6c(cc45)OCCOCCOCCO6)c3)nn2)c1 [compound 5],–,–,–,–,–,–,–,–,–,–,–,–,–,–,–,–,–,–,–,–,Inhibitory effect on A549 cells [2]: excellent inhibitory effects; Inhibitory effect on PC-9 cells [3]: excellent inhibitory effects
COc1c2n(cc(C(=O)Nc3cccc(-c4cn(-c5ccccc5OC(F)(F)F)nn4)c3)c1=O)C[C@H]1OC[C@H](C)N1C2=O [KJ-9],0.7654 and 0.7384 and 0.7732,0.2346 and 0.2616 and 0.2268,75.9±1.83,5.06 ± 0.06,0.8207 and 0.8024 and 0.7986,0.1793 and 0.1976 and 0.2014,80.72±1.18,0.7135,0.2865,0.7214,0.6147,68.32±5.95,0.2786,0.3853,0.3517,0.6483,0.6765,0.5914,0.3235,0.4086,"Inhibition rate (16μM), 48 h, KYSE-30 (KYSE-30 cells): 63.87±4.34"
COc1c2n(cc(C(=O)Nc3cccc(-c4cn(-c5ccccc5I)nn4)c3)c1=O)CC1OCC(C)N1C2=O (stereo not drawn) [KJ-15],0.2424 and 0.3317 and 0.2684,0.7576 and 0.6683 and 0.7316,28.08±4.59,41.8 ± 1.22,0.3617 and 0.3472 and 0.3578,0.6383 and 0.6528 and 0.6422,35.56±0.75,0.3627,0.6373,0.3633,0.3314,35.25±1.83,0.6367,0.6686,0.5987,0.4013,0.4302,0.3963,0.5698,0.6037,"Inhibition rate (16μM), 48 h, KYSE-30 (KYSE-30 cells): 40.93±1.83"
COc1ccc(CN(C(=O)Cn2cc(COc3ccc4c(C)cc(=O)oc4c3)nn2)c2cc(OC)c(OC)c(OC)c2)cc1 [compound 1],–,–,–,–,–,–,–,–,–,–,–,–,–,–,–,–,–,–,–,–,"IC50 (HepG2 cells [1]; ref Fu et al., 2019, read-out: IC50 for the inhibition of HepG2 cells): 1.71 µM"
COc1c2n(cc(C(=O)Nc3cccc(-c4cn(-c5ccccc5Cl)nn4)c3)c1=O)CC1OCC(C)N1C2=O (stereo not drawn) [KJ-19],0.6257 and 0.6335 and 0.6346,0.3743 and 0.3665 and 0.3654,63.13±0.49,7.5 ± 1.19,0.7209 and 0.735 and 0.7422,0.2791 and 0.265 and 0.2578,73.27±1.09,0.5839,0.4161,0.531,0.6163,57.71±4.31,0.469,0.3837,0.43,0.57,0.5211,0.5717,0.4789,0.4283,"Inhibition rate (16μM), 48 h, KYSE-30 (KYSE-30 cells): 55.43±2.87"
COc1ccccc1-n1cc(-c2cccc(NC(=O)c3cn4c(c(OC)c3=O)C(=O)N3[C@@H](C)CO[C@@H]3C4)c2)nn1 [KJ-7],0.3847 and 0.3789 and 0.3067,0.6153 and 0.6211 and 0.6933,35.68±4.35,21.7 ± 1.07,0.4068 and 0.4092 and 0.416,0.5932 and 0.5908 and 0.584,41.07±0.48,0.4361,0.5639,0.4406,0.3594,41.2±4.56,0.5594,0.6406,0.5159,0.4841,0.4213,0.4377,0.5787,0.5623,"Inhibition rate (16μM), 48 h, KYSE-30 (KYSE-30 cells): 44.77±3.26"
COc1c2n(cc(C(=O)Nc3cccc(-c4cn(-c5cccc(Br)c5)nn4)c3)c1=O)CC1OCC(C)N1C2=O (stereo not drawn) [KJ-18],0.6347 and 0.6562 and 0.6485,0.3653 and 0.3438 and 0.3515,64.65±1.09,6.57 ± 1.45,0.7113 and 0.6793 and 0.7366,0.2887 and 0.3207 and 0.2634,70.90±2.87,0.5861,0.4139,0.5487,0.6055,58.01±2.89,0.4513,0.3945,0.385,0.615,0.5247,0.5847,0.4753,0.4153,"Inhibition rate (16μM), 48 h, KYSE-30 (KYSE-30 cells): 57.48±4.60"
